Experimental data as given in US7745401B2, “Antifungal peptides and methods of use thereof” (The Board of Regents of the University of Oklahoma, priority 2005, dated 2010).
Entries after “also recorded” stand apart in the source; their conditions may differ. Where no end group is shown, it is not given here.

B1: PF-4: platelet factor-4, isolated from human platelets (protein, UniProt P02776 32-101, looked up)
Platelet factor 4: EAEEDGDLQCLCVKTTSQVRPRHITSLEVIKAGPHCPTAQLIATLKNGRKICLDLQAPLYKKIIKKLLES
B2: RANTES: Regulated upon Activation Normal T cell Expressed and Secreted protein, isolated from human platelets (protein, UniProt P13501 24-91, looked up)
C-C motif chemokine 5: SPYSSDTTPCCFAYIARPLPRAHIKEYFYTSGKCSNPAVVFVTRKNRQVCANPEKKWVREYINSLEMS

Columns and labels:
C. parapsilosis = test: In vitro candidacidal assay, C. parapsilosis; assay type: cell-based; settings: 100 μg/ml (37.5 μM)
Experimental: (§1) Isolates used in this study included Candida albicans (ATCC 28367), three fluconazole sensitive mucosal isolates of C. albicans, designated A-22, A-111 and A-155, three fluconazole resistant mucosal isolates of C. albicans designated A-46, A-5, and A-20, and a blood isolate of C. albicans designated WDO. Isolates were stored frozen at −70° C. and streaked onto Sabouraud Dextrose Agar (Sigma, St. Louis, Mo.) plates and maintained on plates at 4° C., with subculturing onto new plates approximately every 10 days for the duration of the studies. Fluconazole resistance was evaluated. […]
(§2) Stock solutions of all peptides were made up at concentrations of 1 mg/ml in sterile endotoxin-free water for irrigation (Baxter, Deerfield, Ill.). […] The optical density was read and the culture adjusted to 500 blastospores/100 μl in tryptone saline pH 5.5 (Shafer et al., Infect Immun, 1984). […] The colony forming units (cfu) were counted and the fungicidal activity was expressed as percent killed and calculated according to the following equation: [(control cfu−test cfu)/control cfu]×100=% killed. […] Test cfu is determined by counting the number of colonies present after incubation in tryptone saline containing the peptide. […]

C. glabrata [1] = test: FUN-1 vital dye yeast viability, confocal microscopy, C. glabrata; assay type: cell-based; settings: 400 μg/ml, 37° C. for 2 hr
Experimental: (§3) Yeast viability was also assessed using the FUN-1 Live/Dead Yeast Viability Kit (Molecular Probes, Eugene, Oreg.). The methodology employed was essentially according to the protocol provided by the vendor for use with fluorescent microscopy. Briefly, yeast cultures were prepared exactly as stated above. C. glabrata, C. pseudotropicalis, C. albicans (fluconazole sensitive isolate) and S. cerevisiae (5×10^5 cfu in 100 μl of tryptone saline) were incubated (37° C. for 2 hr) in the absence or presence of peptide (CAP37(20-44)nat and CAP37(20-44)ser26/42) at a final concentration of 400 μg/ml. At the end of the incubation period, the samples were transferred to microcentrifuge tubes and centrifuged (10,000×g for 3 min at room temperature). The supernatant was removed and the pellet resuspended in 25 μl of GH solution (2% D-glucose containing 10 mM Na-HEPES, pH 7.2) as described in the technical data sheet provided by the vendor. A working solution of the FUN-1 reagent (100 μl of 10 μM) was prepared from 10 mM stock solution and 25 μl (final concentration 5 μM) added to the yeast and incubated at room temperature for 30 min. A sample (10 μl) was placed on a microscope slide and staining observed under a Leica TCS NT confocal microscope using Ar-488 and Kr-568 Lasers and 63x Plan APO 1.2 NA water immersion objective. Images were scanned and analyzed using the Leica TCS software.

C. guilliermondii = test: In vitro candidacidal assay, C. guilliermondii; assay type: cell-based; settings: 100 μg/ml (37.5 μM)
Experimental: as §1, §2

[2] = system: C. albicans (fluconazole sensitive isolate); test: FUN-1 vital dye yeast viability, confocal microscopy, C. albicans; assay type: cell-based, Candida albicans; settings: 400 μg/ml, 37° C. for 2 hr
Experimental: as §3

Candida albicans = assay type: cell-based; settings: for activity against C. albicans: in vitro killing efficacy; for activity against fluconazole resistant isolates: isolates A-5 and A-20; for activity against fluconazole sensitive isolates: isolates A-155, A-22 and A-111, 400 μg/ml; for killing of blood isolate of Candida: blood isolate of C. albicans, 400 μg/ml (150 μM); for peptide concentration required for activity: fluconazole resistant isolate A-46; for activity at the lower concentration: fluconazole resistant isolates A-5 and A-20, 200 μg/ml or 75 μM; for fungicidal or fungistatic effect: isolates A-5, A-20, A-46 and A-155, viable colony counts versus starting inoculum
Experimental: (§4) Isolates used in this study included Candida albicans (ATCC 28367), three fluconazole sensitive mucosal isolates of C. albicans, designated A-22, A-111 and A-155, three fluconazole resistant mucosal isolates of C. albicans designated A-46, A-5, and A-20, and a blood isolate of C. albicans designated WDO. Isolates were stored frozen at −70° C. and streaked onto Sabouraud Dextrose Agar (Sigma, St. Louis, Mo.) plates and maintained on plates at 4° C., with subculturing onto new plates approximately every 10 days for the duration of the studies. Fluconazole resistance was evaluated. Three clinical isolates of C. glabrata, two clinical isolates of C. dubliniensis, and single isolate each of C. krusei, C. guilliermondii, C. parapsilosis, C. pseudotropicalis and C. tropicalis and two isolates of Saccharomyces cerevisiae were also used in this study and were maintained on Sabouraud Dextrose agar plates at 4° C. A single yeast colony was cultured overnight at 33° C. in 1% phytone peptone broth (Becton Dickinson, Sparks Md.) with 0.1% D-glucose (Sigma).
Stock solutions of all peptides were made up at concentrations of 1 mg/ml in sterile endotoxin-free water for irrigation (Baxter, Deerfield, Ill.). Subsequent dilutions were all made in tryptone saline pH 5.5 (Shafer et al., Infect Immun, 1984). An aliquot (100 μl) of an overnight culture of a single colony grown at 33° C. in 1% phytone peptone broth with 0.1% glucose was subcultured in 5 ml of 1% phytone peptone broth with 0.1% glucose and incubated in a shaking water bath (80 oscillations per min, Precision, Winchester, Va.) for 90 min at 33° C. to yield a logarithmic culture. […] The optical density was read and the culture adjusted to 500 blastospores/100 μl in tryptone saline pH 5.5 (Shafer et al., Infect Immun, 1984). To 100 μl of the organism suspension in a 96 well sterile polystyrene microtiter plate (Becton Dickinson, Franklin Lakes, N.J.) was added 100 μl of the peptide (final concentrations 400 μg/ml and 200 μg/ml) or 100 μl of tryptone saline. The latter served as a control. The microtiter plate was incubated at 37° C. for 4 hr and 100 μl of the contents from each well was plated on Sabouraud Dextrose agar plates and incubated at 37° C. overnight. The colony forming units (cfu) were counted and the fungicidal activity was expressed as percent killed and calculated according to the following equation: [(control cfu−test cfu)/control cfu]×100=% killed. Control cfu is indicated by the number of colonies present after […] of incubation in tryptone saline alone in the absence of peptide. Test cfu is determined by counting the number of colonies present after incubation in tryptone saline containing the peptide. Each experimental point was performed in triplicate.
C. albicans (ATCC 28367) was used to standardize the in vitro killing assay. We explored the optimal growth conditions (temperature and time, 25° C. for 5 h and 33° C. for 90 min), numbers of blastospores per well (200, 400, 500, 600, 800, and 1000 cfu), range of peptide concentrations (750, 500, 400, 200 and 100 μg/ml) and the contact time between peptide and Candida (1, 2 and 4 hr) for killing to occur. […] The 90 minute incubation was more convenient technically and was therefore employed routinely. The optimum numbers of cfu per well was determined to be 500 and an incubation time of 4 hr at 37° C. between Candida and peptide was required to obtain optimal killing.

S. cerevisiae = test: FUN-1 vital dye yeast viability, confocal microscopy, S. cerevisiae; assay type: cell-based, Saccharomyces cerevisiae; settings: 400 μg/ml, 37° C. for 2 hr
Experimental: as §3

[3] = system: Salmonella typhimurium, Escherichia coli, and Pseudomonas aeruginosa; settings: Gram negative organisms; cited from earlier work
C. pseudotropicalis = test: In vitro candidacidal assay, C. pseudotropicalis; assay type: cell-based; settings: 400 μg/ml (150 μM)
Experimental: as §1, §2

C. glabrata [4] = test: In vitro candidacidal assay, C. glabrata; assay type: cell-based; settings: one isolate of three; 400 μg/ml (150 μM)
Experimental: as §4
as §2, with “Ill.). Subsequent dilutions were all made in tryptone saline pH 5.5 (Shafer et al., Infect Immun, 1984).” for “Ill.).”

[5] = system: hyphal forms of Candida albicans; test: In vitro candidacidal assay on hyphal forms of C. albicans; assay type: cell-based; settings: clinical isolates; 400 and 200 μg/ml
Experimental: To induce hyphal formation a single colony of C. albicans isolates A-5, A-20, A-22, A-46, A-11 and A-155 from a Sabouraud Dextrose agar plate was transferred to 1% phytone peptone broth with 0.1 glucose and grown overnight at 33° C. An aliquot (500 μl) of the overnight culture was subcultured in 5 ml of RPMI-1640 (Celigro Mediatech Inc, Herndon, Va.)) with 10% fetal calf serum (Invitrogen, Grand Island, N.Y.) for 90 min at 37° C. Hyphal formation was determined under phase microscopy.
as §2, with “Ill.). Subsequent dilutions were all made in tryptone saline pH 5.5 (Shafer et al., Infect Immun, 1984).” for “Ill.).”

C. tropicalis = test: In vitro candidacidal assay, C. tropicalis; assay type: cell-based; settings: 400 μg/ml (150 μM)
Experimental: as §4
as §2, with “Ill.). Subsequent dilutions were all made in tryptone saline pH 5.5 (Shafer et al., Infect Immun, 1984).” for “Ill.).”

C. dubliniensis = test: In vitro candidacidal assay, C. dubliniensis; assay type: cell-based; settings: two isolates; 400 μg/ml (150 μM)
Experimental: as §4
as §2, with “Ill.). Subsequent dilutions were all made in tryptone saline pH 5.5 (Shafer et al., Infect Immun, 1984).” for “Ill.).”

Candida = settings: peptides isolated from human platelets; cited from earlier work

| Molecule | activity against C. parapsilosis (C. parapsilosis) | cell viability (C. glabrata [1]) | activity against C. guilliermondii (C. guilliermondii) | blastoconidia alive [2] | activity against C. albicans (Candida albicans) | activity against fluconazole resistant isolates (Candida albicans) | activity against fluconazole sensitive isolates (Candida albicans) | cell viability (S. cerevisiae) | bactericidal activity [3] | activity against C. pseudotropicalis (C. pseudotropicalis) | activity against C. glabrata (C. glabrata [4]) | activity on hyphal forms of C. albicans [5] | activity against C. tropicalis (C. tropicalis) | killing (Candida albicans) | killing of blood isolate of Candida (Candida albicans) | peptide concentration required for activity (Candida albicans) | activity at the lower concentration (Candida albicans) | fungicidal or fungistatic effect (Candida albicans) | activity against C. dubliniensis (C. dubliniensis) | candidacidal activity (Candida) |
| --- | --- | --- | --- | --- | --- | --- | --- | --- | --- | --- | --- | --- | --- | --- | --- | --- | --- | --- | --- | --- |
| NQGRHFSGGALIHARFVMTAASSFQ (NQGRHFSGGALIHARFVMTAASSFQ; listed as Homo sapiens) [CAP37(20-44)ser26/42, cysteines at positions 26 and 42 replaced by serine] | some activity | virtually all cells were viable | some activity | 30% | significantly abrogated activity | moderately active | lack of activity | virtually all cells were viable | inactive compound | some activity |  |  |  |  |  |  |  |  |  |  |
| NQGRHFCGGALIHARFVMTAASSFQ [CAP37(20-44)ser42, NQGRHFCGGALIHARFVMTAASSFQ] |  |  |  |  | significant activity | highly active | strongly active |  |  |  | effective against both isolates of C. dubliniensis and one isolate of C. glabrata, although to a lesser extent | greater activity | killed | > 75% | killed | 400 µg/mL | significant activity | fungicidal rather than fungistatic | more effective against C. dubliniensis than CAP37(20-44)nat; also recorded: effective against both isolates of C. dubliniensis and one isolate of C. glabrata, although to a lesser extent |  |
| NQGRHFSGGALIHARFVMTAASCFQ [CAP37(20-44)ser26, NQGRHFSGGALIHARFVMTAASCFQ] |  |  |  |  | significant activity | highly active | strongly active |  |  |  | effective against both isolates of C. dubliniensis and one isolate of C. glabrata, although to a lesser extent |  | killed | > 75% | killed | 400 µg/mL | significant activity | fungicidal rather than fungistatic | effective against both isolates of C. dubliniensis and one isolate of C. glabrata, although to a lesser extent |  |
| B1 |  |  |  |  |  |  |  |  |  |  |  |  |  |  |  |  |  |  |  | exhibited candidacidal activity |
| B2 |  |  |  |  |  |  |  |  |  |  |  |  |  |  |  |  |  |  |  | exhibited candidacidal activity |
